Entries after “also recorded” stand apart in the source; their conditions may differ. Like-named read-outs stand apart in the source and are kept apart here.

Data set [1] deals with ABCA1. Nature of the data set: ABCA1-luc reporter assay in CCF-STTG1 astrocytoma cells. In kind it is cell-based, human. Conditions: normalized to T0. The source says: Astrocytoma CCF-STTG1 cells, stably transfected with an ABCA1-promoter linked to a luciferase response element, provide a model for ABCA1 induction in astrocytes ([Ben Aissa et al., 2021]). […] Apparent inverse agonist activity in cell-based assays can result from ‘true’ inverse agonist recruitment of corepressors or from antagonist activity towards endogenous sterol LXR agonists. Although we use serum-stripped media, antagonism of endogenous LXR agonists cannot be ruled out.
Low passage CCF-STTG1 cells (20,000 cells/well) were seeded in 96-well plates in media containing charcoal-stripped FBS and incubated at 37 °C and 5% CO2 for 24 hr prior to a 24 hr treatment. All compounds were dissolved in DMSO, and final DMSO concentrations never exceeded 1%. After a 24 hr incubation period, add a volume of ONE-GLOEX Reagent that is equal to the volume of culture medium in each well and incubate for 3–5 min on the shaker. The luminescent activity of compounds ([…], 10-fold dilution) was examined using the ONE-GLOEX assay (Promega). […] The assays were performed in duplicates for each concentration, and the EC50 values were determined from non-linear regression analysis of the dose-response curve generated in GraphPad Prism 9.

Data set [2] concerns HepG2 cells. Briefly: Cell viability in HepG2 cells under SRE-luc conditions. Conditions: conditions of SRE-luc measurements. In kind it is cell-based, human. The source says: Figure 5. Lipogenic response of HepG2 cells to treatment with liver X receptor (LXR) ligands. […] See Figure 3—figure supplement 1 for biological replicates. […] See Figure 5—figure supplement 1 for full concentration-response curves. Figure 5—figure supplement 1. Response of HepG2 cells to treatment with liver X receptor (LXR) ligands. (A–B) Lipogenic response of HepG2 cells to treatment with liver X receptor (LXR) ligands showing full concentration-response curves for biphenyl compounds shown in Figure 5E–F. (C) Cell viability in HepG2 cells under identical conditions to those used to obtain sterol response element (SRE)-luc data. [drawing 5]

For data set [3], the system named is LXR. Briefly: Corepressor (NCOR2, SMRT2) binding to LXR, CRT, statements across isoforms. The data set is classed as biochemical. Particulars: monoplex CRT, absence of coactivator.
Data set [4] deals with LXR. Briefly: Categorization of ligands by CRT/pCRT signature. The data set is classed as biochemical. Particulars: response at 1 µM ligand compared with theoretical signatures. The source says: With the knowledge that, in pCRT, corepressors bind to the apo-receptor; whereas coactivator binding requires a ligand-induced conformational change, we can categorize all ligands using their CRT profiles. Ligands induce three LXR conformational ensembles with CoR (destabilizing D, stabilizing S, neutral N) and only two conformations with CoA (stabilizing S, neutral N) (Figure 9 (Table 1)). In categorizing ligands based upon these CRT characteristics, labels are needed.
The category for each ligand is not always identical for LXRα vs. LXRβ. Similarly, the phenotype associated with each classification is isoform dependent. Recruitment of CoA to LXRβ by FA, WA, and PA will activate transcription; whereas, lack of recruitment by SA, HA, and RA will antagonize transcription (Figure 9 (Table 1)). Stabilization of CoA and/or destabilization of CoR bound to LXRα is a derepression mechanism leading to activation/transcription for FA, WA, and RA; whereas partial activation is expected for PA.
To determine which LXR ligands fit with these theoretical CRT signatures, concentration-response curves were interpolated to measure normalized response at 1 µM ligand concentration and plotted as a heat map (Figure 9A).

Data set [5] relates to mouse model of non-alcoholic steatohepatitis (NASH). On the set-up: method as in Griffett et al., 2015; Griffett and Burris, 2016. Conditions: ref Griffett et al., 2015; Griffett and Burris, 2016; cited from earlier work.
Data set [6] has as its target T1, LXRβ (Homo sapiens, UniProt P55055).
T1 sequence (P55055 222-460 limits assumed): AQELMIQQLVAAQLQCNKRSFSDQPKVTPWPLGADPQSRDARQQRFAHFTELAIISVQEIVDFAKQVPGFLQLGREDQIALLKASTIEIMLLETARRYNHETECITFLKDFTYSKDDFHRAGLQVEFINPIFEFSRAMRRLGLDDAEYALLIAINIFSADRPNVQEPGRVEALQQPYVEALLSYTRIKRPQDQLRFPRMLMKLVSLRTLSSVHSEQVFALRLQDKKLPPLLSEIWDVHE
Briefly: SRC-1 coactivator recruitment to LXRβ, coregulator TR-FRET (CRT). The data set is classed as biochemical. On the set-up: The CRT selectivity assay incorporates GST-tagged LXR-LBD; purchased Thermo Fisher Scientific PV4660. On the technique in general: TR-FRET usually uses a lanthanide donor and a delayed reading to cut background.

Data set [7] addresses T2, LXRα (Homo sapiens, UniProt Q13133).
T2 sequence (Q13133 209-447 limits assumed): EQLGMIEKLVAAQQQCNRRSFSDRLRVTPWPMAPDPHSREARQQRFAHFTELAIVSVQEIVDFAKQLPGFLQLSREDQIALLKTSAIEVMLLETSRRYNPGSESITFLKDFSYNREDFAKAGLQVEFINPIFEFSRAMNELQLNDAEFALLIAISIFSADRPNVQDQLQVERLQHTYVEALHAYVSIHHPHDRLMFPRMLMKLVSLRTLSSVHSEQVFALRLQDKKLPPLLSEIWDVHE
Briefly: SMRT2 corepressor binding to LXRα, CRT. Conditions: read-out: SMRT2α, relative % activity at 1 μM. On the set-up: The CRT selectivity assay incorporates GST-tagged LXR-LBD; purchased Thermo Fisher Scientific PV4657. The data set is classed as biochemical.

For data set [8], the target named is T1, LXRβ. Nature of the data set: SMRT2 corepressor binding to LXRβ, CRT. In kind it is biochemical. On the set-up: The CRT selectivity assay incorporates GST-tagged LXR-LBD; purchased Thermo Fisher Scientific PV4660. Particulars: for activity at 1 µM: read-out: SMRT2β, relative % activity at 1 μM.
For data set [9], the system named is obese mice on HFD. On the set-up: method as in Griffett et al., 2015. Conditions: ref Griffett et al., 2015; cited from earlier work.
The target of data set [10] is T2, LXRα. Particulars: in the absence of agonist.
Data set [11] addresses T1, LXRβ. Particulars: in the absence of agonist.

On to `Cc1cc(C)c(S(=O)(=O)N(Cc2ccc(-c3cccc(S(C)(=O)=O)c3)cc2)Cc2ccc(C(F)(F)F)o2)c(C)c1` [GSK2033], for which the “ABCA1 induction response/phenotype in CCF cells” value in data set [1] was “inverse agonist activity in cells”. Further, the HepG2 cell viability/cytotoxicity result in data set [2] is “no loss of cell viability”. The “Corepressor (NCOR2, SMRT2) displacement or stabilization, across LXR isoforms” value in data set [3] is “little or no ability to displace NCOR2 and SMRT2 corepressors from LXR; also recorded: does not stabilize a conformation that disrupts corepressor binding to LXRα”. Further, the CRT/pCRT signature category result in data set [4] is “HA (hard antagonist (HA))”. The “Hepatic effects in NASH mouse model” value in data set [5] is listed as “no beneficial effects on hepatic steatosis”. For the same molecule, the “Antagonism of 24HC agonism at LXRβ (SRC-1 CRT)” value in data set [6] is recorded as “antagonized the agonism of 24HC at LXRβ”. In addition, the activity at 1 µM in data set [7] (ligand 1 µM, interpolated from concentration-response, normalized, heat map Figure 9A) came to 92.9%. Also, in data set [8], the “Effect on SMRT2 binding to LXRβ” value is given as “selectively displace SMRT2 from LXRβ” and the activity at 1 µM worked out at 93.4%.
For the molecule `CCOC(=O)c1ccc(CN(Cc2ccc(-c3cccc(S(C)(=O)=O)c3)cc2)S(=O)(=O)c2c(C)cc(C)cc2C)o1` [SR9238], in data set [1], the “ABCA1 induction response/phenotype in CCF cells” value is “inverse agonist activity in cells”. Further, the HepG2 cell viability/cytotoxicity result in data set [2] was “no loss of cell viability”. Further, the “Corepressor (NCOR2, SMRT2) displacement or stabilization, across LXR isoforms” value in data set [3] is reported as “strong agonist responses”. In addition, the CRT/pCRT signature category entry in data set [4] was “RA (reverse agonist (RA))”. In addition, in [9], the “Plasma TG” value was “plasma TG was suppressed”. In addition, in [5], the “Hepatic effects in NASH mouse model” value is “significantly reduced hepatic inflammation and fibrosis”. Besides, the “Coactivator recruitment to LXRα” value in data set [10] is on record as “unable to recruit coactivators to LXRα”. In [11], the “Coactivator recruitment to LXRβ” value is listed as “very weakly supported coactivator recruitment to LXRβ”. Moreover, in data set [6] (in the presence of 24HC (3 µM)), the “Antagonism of 24HC agonism at LXRβ (SRC-1 CRT)” value is given as “antagonized the agonism of 24HC at LXRβ”. Further, the activity at 1 µM in data set [7] was found to be 64.5%; in data set [8], 69.2%.
